Assay results taken from patent publication US20170273922A1, “UREA AND BIS-UREA BASED COMPOUNDS AND ANALOGUES THEREOF USEFUL IN THE TREATMENT OF ANDROGEN RECEPTOR MEDIATED DISEASES OR DISORDERS” (THE ROYAL INSTITUTION FOR THE ADVACEMENT OF LEARNING/MCGILL …, priority 2014, published 2017).

Experiments:
full-length IRF3 = target: T1, full-length IRF3 (Homo sapiens, UniProt Q14653); assay: Full-length IRF3 ISRE-luc reporter assay; type: cell-based; conditions: PC3 cells, 24 h
T1 construct: co-transfected with full-length IRF3 or IRF3DBD-AR(1-547) expressing plasmids; expressed in transfected cells
T1 sequence (Q14653 1-427): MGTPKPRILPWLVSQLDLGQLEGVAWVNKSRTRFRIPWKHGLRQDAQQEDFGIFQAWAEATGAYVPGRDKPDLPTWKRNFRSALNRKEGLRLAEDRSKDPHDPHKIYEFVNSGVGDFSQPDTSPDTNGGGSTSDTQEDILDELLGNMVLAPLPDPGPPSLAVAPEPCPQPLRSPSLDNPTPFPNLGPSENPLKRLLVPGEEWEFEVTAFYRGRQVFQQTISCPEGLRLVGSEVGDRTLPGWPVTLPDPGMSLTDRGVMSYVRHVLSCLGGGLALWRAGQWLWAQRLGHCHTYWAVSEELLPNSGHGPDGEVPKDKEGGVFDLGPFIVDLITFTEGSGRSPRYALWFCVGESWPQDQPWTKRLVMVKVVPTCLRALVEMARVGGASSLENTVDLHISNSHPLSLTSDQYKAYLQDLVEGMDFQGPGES
From the text: For all of the others, cells were co-transfected with full-length IRF3 or IRF3DBD-AR(1-547) expressing plasmids and with the ISRE-luc reporter and pRL-TK plasmids. […] As IRF3DBD-AR(1-547) contains the DBD of IRF3, ISRE-luc reporter instead of the PSA-luc reporter was used in our assays.
HEK293 cells were co-transfected with IRF3DBD(1-133) or IRF3DBD-AR(1-547) or IRF3DBD-AR(181-547) or full-length IRF3 expressing plasmids and with the ISRE-luc reporter and the Renilla luciferase pRL-TK plasmids.
Here, IRF3-AR(1-547) is the fusion of IRF3 DBD with the AR NTD (1-547). […] The plasmids expressing IRF3-AR(1-547) (A) or wild-type IRF3 (B) or IRF3 DBD (for NT) as well as ISRE-luc and pRL-TK were transiently transfected into PC3 cells. […] Bic, bicalutamide; EPI, EPI-001.

VP16-AR(507-919) = VP16-AR(507-919) (NTD-deleted) PSA-luc reporter assay; conditions: 10 nM DHT, 24 h; PC3 or HEK293 cells
[1] = MTT assay (cytotoxicity), DU145 cells; type: cell-based; conditions: human, DU145 cells, Table 4.1
Procedure, shortened: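 Seed 6-7×10^3 cells/well; incubate overnight; replace with fresh RPMI 1640 + 10% FBS containing compound or DMSO; incubate 72 h; measure viable cells by MTT.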

[2] = MTT assay (72 h), liver hepatocellular carcinoma cell line of Table 6.1; type: cell-based; conditions: human, HepG2 cells (liver hepatocellular carcinoma), 72 h treatment, read-out: Cytotoxicity (IC50, μM) HepG2
[3] = MTT assay (cytotoxicity), MCF-7 cells; type: cell-based; conditions: human, 72 h treatment, Table 6.1
Protocol: (§1) MTT assays: LNCaP, 22Rv1, Du145, H1975, A549, MB231 and MCF-7 cells are maintained in RPMI 1640 supplemented with 10% FBS. Cells were seeded at a density of 6-7×10^3 cells per well in 96-well plates. After overnight incubation, cells in fresh RPMI 1640 supplemented with 10% FBS were exposed to DMSO vehicle control or test compounds at designated concentrations for 72 h. Viable cells were evaluated by MTT assays. Experiments were performed in triplicate and repeated at least twice.

[4] = MTT assay (cytotoxicity), A549 cells; type: cell-based; conditions: human, 72 h treatment, Table 6.1
Protocol: as §1

[5] = MTT assay (cytotoxicity), MB231 cells; type: cell-based; conditions: human, 72 h treatment, Table 6.1
Protocol: as §1

[6] = MTT assay (cytotoxicity), H1975 cells; type: cell-based; conditions: human, 72 h treatment, Table 6.1
Protocol: as §1

Row | SMILES | melting point [°C] | activity against wild-type IRF3 (ISRE-luc) (full-length IRF3) | inhibition of DHT-induced activation of VP16-AR(507-919) (PSA-luc) (VP16-AR(507-919)) | IC50 at 72 h [1] [µM] | IC50 at 72 h [2] [µM] | IC50 at 72 h [3] [µM] | IC50 at 72 h [4] [µM] | IC50 at 72 h [5] [µM] | IC50 at 72 h [6] [µM]
1 | O=C(N/C=C/c1cccc(C(F)(F)F)c1)Nc1ccncn1 [Compound 562] | 213 to 215 | inactive | inactive | – | – | – | – | – | –
2 | O=C(Nc1ccc(Br)nc1)Nc1cc(C(F)(F)F)cc(C(F)(F)F)c1 [Compound 566] | – | – | – | 1.7 | – | – | – | – | –
3 | O=C(Nc1cccc(C(F)(F)F)c1)Nc1ccc(NC(=O)c2ccccc2F)c(C(F)(F)F)c1 [Compound 746] | – | inactive | inactive | – | 1.2 | 2.5 | 2.4 | 4.6 | 2.5
